The values below come from US11623919B2, “Heterocyclic P2X7 antagonists” (AXXAM S.P.A., priority 2017, dated 2023).

Format in all cases: cell-based
Assay [1] concerns the target T1, P2X7 receptor (Homo sapiens, UniProt Q99572).
T1 sequence (Q99572 1-595): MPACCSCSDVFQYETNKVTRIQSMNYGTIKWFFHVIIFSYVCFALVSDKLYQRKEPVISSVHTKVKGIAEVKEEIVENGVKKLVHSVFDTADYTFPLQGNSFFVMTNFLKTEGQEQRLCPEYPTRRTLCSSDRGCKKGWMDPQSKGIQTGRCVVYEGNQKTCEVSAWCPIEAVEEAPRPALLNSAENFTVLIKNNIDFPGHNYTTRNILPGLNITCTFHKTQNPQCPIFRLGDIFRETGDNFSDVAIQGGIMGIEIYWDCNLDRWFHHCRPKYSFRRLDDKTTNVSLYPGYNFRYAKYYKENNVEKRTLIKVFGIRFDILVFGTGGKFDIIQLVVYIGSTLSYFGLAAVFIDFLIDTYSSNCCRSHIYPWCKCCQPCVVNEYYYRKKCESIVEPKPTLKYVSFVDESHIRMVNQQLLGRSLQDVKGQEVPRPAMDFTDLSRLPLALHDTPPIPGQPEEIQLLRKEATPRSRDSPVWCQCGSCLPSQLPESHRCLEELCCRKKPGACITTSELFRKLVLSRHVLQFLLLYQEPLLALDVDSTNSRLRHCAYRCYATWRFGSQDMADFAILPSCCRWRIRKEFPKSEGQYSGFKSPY
The assay can be described thus: Automated patch-clamp (QPatch16X) P2X7 channel assay. On the set-up: expressed in transfected cells; host or cells: HEK-293. Conditions: HEK-293 cells expressing P2X7 channels; whole-cell, held at -80 mV; 100 microM BzATP; compound 1, 10, 100 and 1000 nM; read-out: Q-Patch (IC50). The gist of the method: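 Whole-cell patch clamp was run at room temperature on HEK-293 cells expressing P2X7, held at −80 mV with CsF internal and pH 7.4 NaCl external solutions. Currents were evoked by 100 µM BzATP alone and then with compound at 1, 10, 100 and 1000 nM. Peak inward currents were normalized and fitted to a Hill equation to give IC50.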

The target of assay [2] is T1, P2X7 receptor. Description: Screen Quest Fluo-8 No Wash Calcium Assay (Bz-ATP evoked Ca2+ influx, FLIPR). As to conditions: hP2X7; HEK-293 cells stably transfected with P2X7 receptor, Bz-ATP at EC80, Fluo-8 NW; potency ranges A-D. Further details: hP2X7 (IC50; nM); other: hP2X7; HEK-293 cells stably transfected with P2X7 receptor, Bz-ATP at EC80, Fluo-8 NW; potency. The gist of the method:
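HEK-293 cells stably expressing P2X7 were loaded with Fluo-8 NW for 1 h at RT, then given compound, and 5 min later Bz-ATP at EC80. Fluorescence was read by FLIPR in low divalent cation buffer (0.3 mM Ca2+, 0 mM Mg2+). IC50 came from percent inhibition relative to reference antagonist A438079.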

The target in assay [3] is T1, P2X7 receptor. The assay can be described thus: YO-PRO-1 uptake assay. Conditions: HEK-293 cells stably transfected with P2X7 receptor; Bz-ATP EC80 (30 μM); Low Divalent Cation Assay Buffer. On the set-up: expressed in transfected cells. The text has this: YO-PRO®-1 is a fluorescent DNA-binding dye with a MW of 374 Da (Molecular Probes®, cat. Y3603). This method is based upon the presumed ability of YO-PRO®-1 to enter through the dilated or “large pore form” of P2X7 receptor and to bind to intracellular DNA whereupon it increases many fold its fluorescence intensity. The dye ha an absorption spectrum compatible with excitation at 488 nm by argon laser sources and its emission wavelength is in the range of 515-575 nm. The aim of this assay was to validate the interaction of antagonists with P2X7 receptor using an alternative readout to Ca2+-sensitive fluorescent dyes.
HEK-293 cells stably transfected with P2X7 receptor were seeded overnight un growth medium at 20,000 cell/well in 384-well plate. 24 hours later, the medium was removed, the cells were washed with Low Divalent Cation Assay Buffer (0.3 mM Ca^2+ and 0 mM Mg^2+) and then pre-loaded with 20 μL/w of 5 μM YO-PRO®-1 dye.
FLIPRTETRA fluorescence measurement immediately started. Then 10 μL/w of test compounds and reference antagonist A438079 at 3×-concentration were injected with the FLIPRTETRA and the kinetic response over a period of five minutes was monitored. A second injection of 10 μL/w of 3× Bz-ATP EC80 (30 μM) was performed with the FLIPRTETRA and the signal of the emitted fluorescence was recorded for additional 60 minutes. All the experiment was carried out with a Low Divalent Cation Assay Buffer (0.3 mM Ca^2+ and 0 mM Mg^2+).
The effect of the test compounds was measured as percent inhibition vs the reference antagonist and IC50 values were calculated accordingly.

For the compound `O=c1onc(CC2CCCCC2)n1Cc1c(F)cccc1Cl` [Example 130, 4-[(2-chloro-6-fluorophenyl)methyl]-3-(cyclohexylmethyl)-4,5-dihydro-1,2,4-oxadiazol-5-one], the IC50 at P2X7 receptor [1] is 0.0948 µM; at P2X7 receptor [2] it was 200 to 1000 nM; against P2X7 receptor [3], 233 nM.
Take `O=c1onc(CC2CCC(F)(F)CC2)n1Cc1c(F)cccc1Cl` [Example 132, 4-[(2-chloro-6-fluorophenyl)methyl]-3-[(4,4-difluorocyclohexyl)methyl]-4,5-dihydro-1,2,4-oxadiazol-5-one]: the results for the IC50 at P2X7 receptor [1], on P2X7 receptor [2] and at P2X7 receptor [3] were 0.00336 µM, under 200 nM and 32 nM, respectively.
The matching figures for `O=c1snc(Cc2c(F)cccc2Cl)n1CC1CCCCC1` [Example 140, 3-[(2-chloro-6-fluorophenyl)methyl]-4-(cyclohexylmethyl)-4,5-dihydro-1,2,4-thiadiazol-5-one]: 0.0392 µM, 200 to 1000 nM and 181 nM.
Take `O=c1snc(Cc2c(F)cccc2Cl)n1CC1CCC(F)(F)CC1` [Example 141, 3-[(2-chloro-6-fluorophenyl)methyl]-4-[(4,4-difluorocyclohexyl)methyl]-4,5-dihydro-1,2,4-thiadiazol-5-one]: the values for the IC50 on P2X7 receptor [1], at P2X7 receptor [2] and against P2X7 receptor [3] were 0.00304 µM, under 200 nM and 31 nM, respectively.
Regarding `O=c1onc(Cc2c(F)cccc2Cl)n1CCC1CCCCC1` [Example 142, 3-(2-chloro-6-fluorobenzyl)-4-(2-cyclohexylethyl)-1,2,4-oxadiazol-5(4H)-one], the IC50 on P2X7 receptor [1] was 0.153 µM; on P2X7 receptor [2], 200 to 1000 nM; against P2X7 receptor [3], 467 nM.
As for `Cc1noc(C)c1Cc1noc(=O)n1CC1CCCCC1` [Example 210, 4-(cyclohexylmethyl)-3-[(dimethyl-1,2-oxazol-4-yl)methyl]-4,5-dihydro-1,2,4-oxadiazol-5-one], the IC50 at P2X7 receptor [1] was 0.149 µM; at P2X7 receptor [2] it was 200 to 1000 nM; against P2X7 receptor [3] it was 184 nM.
As to `Cc1noc(C)c1Cc1noc(=O)n1CC1CCC(F)(F)CC1` [Example 211, 4-[(4,4-difluorocyclohexyl)methyl]-3-[(dimethyl-1,2-oxazol-4-yl)methyl]-4,5-dihydro-1,2,4-oxadiazol-5-one], the IC50 on P2X7 receptor [1] is 0.119 µM; on P2X7 receptor [2] it was under 200 nM; against P2X7 receptor [3] it was 171 nM.
